Source: US20160009693A1, “HERBICIDAL COMPOUNDS” (SYNGENTA LIMITED, priority 2013, published 2016)

How the values were obtained:
Assay type in all cases: in vivo
Settings in all cases: applied at 1000 g/h, evaluated after 13 days
[1] = system: Alopecurus myosuroides (ALOMY); assay: Herbicidal glasshouse test, pre-emergence, ALOMY
[2] = system: Setaria faberi (SETFA); assay: Herbicidal glasshouse test, pre-emergence, SETFA
[3] = system: Echinochloa crus-galli (ECHCG); assay: Herbicidal glasshouse test, pre-emergence, ECHCG
Summary of the method: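 In this pre-emergence glasshouse test, ECHCG seeds sown in pots of standard soil were sprayed one day after sowing with the test material in acetone/water (50:50) containing 0.5% Tween 20. Plants were kept at 24/16° C., 14 hours light, 65% humidity, and watered twice daily. Percentage damage was rated after 13 days on a 1–5 scale.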

[4] = system: Solanum nigrum (SOLNI); assay: Herbicidal glasshouse test, pre-emergence, SOLNI
Summary of the method: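 This pre-emergence glasshouse herbicide test used Solanum nigrum sown in standard soil. One day after sowing, pots were sprayed with the compound in acetone/water (50:50) with 0.5% Tween 20. They were then grown at 24/16° C., with 14 hours light and 65% humidity, and watered twice daily. Percentage damage was scored after 13 days on a five point scale, where 5=80-100% and 1=0-19%.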

[5] = system: Amaranthus retoflexus (AMARE); assay: Herbicidal glasshouse test, pre-emergence, AMARE
Summary of the method: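 This pre-emergence glasshouse herbicide test used Amaranthus retoflexus sown in standard soil. After one day of cultivation, an aqueous spray made from the technical ingredient in 50:50 acetone/water with 0.5% Tween 20 was applied. Pots stayed at 24/16° C., 14 hours light, 65% humidity, with twice-daily watering. Damage was rated on a five point scale (1=0-19% up to 5=80-100%).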

[6] = system: Ipomoea hederacea (IPOHE); assay: Herbicidal glasshouse test, pre-emergence, IPOHE
[7] = system: Alopecurus myosuroides (ALOMY); assay: Herbicidal glasshouse test, post-emergence, ALOMY
[8] = system: Setaria faberi (SETFA); assay: Herbicidal glasshouse test, post-emergence, SETFA
Summary of the method: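 This post-emergence glasshouse herbicide test used potted Setaria faberi. Plants were cultivated for 8 days under controlled conditions (24/16° C. day/night, 14 hours light, 65% humidity) and then treated with an aqueous spray made from an acetone/water (50:50) solution containing 0.5% Tween 20. After 13 days of further growth with twice-daily watering, damage was rated on a five point scale (5=80-100%; 1=0-19%).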

[9] = system: Echinochloa crus-galli (ECHCG); assay: Herbicidal glasshouse test, post-emergence, ECHCG
Summary of the method: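 In this post-emergence glasshouse test, barnyard grass (ECHCG) was cultivated for 8 days under controlled conditions (24/16° C. day/night, 14 hours light, 65% humidity). It was then sprayed with an aqueous solution of the technical compound in acetone / water (50:50) with 0.5% Tween 20. Plants were kept under the same conditions and watered twice daily. After 13 days, percentage damage was rated on a five point scale (5=80-100%; 1=0-19%).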

[10] = system: Solanum nigrum (SOLNI); assay: Herbicidal glasshouse test, post-emergence, SOLNI
[11] = system: Amaranthus retoflexus (AMARE); assay: Herbicidal glasshouse test, post-emergence, AMARE
Summary of the method: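 This post-emergence glasshouse test used AMARE plants raised in standard soil for 8 days under controlled conditions (24/16° C. day/night, 14 hours light, 65% humidity). Foliage was sprayed with formulated compound in acetone/water (50:50) containing 0.5% Tween 20. Plants were then watered twice daily, and after 13 days percentage damage was rated on a five point scale.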

[12] = system: Ipomoea hederacea (IPOHE); assay: Herbicidal glasshouse test, post-emergence, IPOHE

| SMILES | PRE Application ALOMY, percentage damage (five point scale) [1] | PRE Application SETFA, percentage damage (five point scale) [2] | PRE Application ECHCG, percentage damage (five point scale) [3] | PRE Application SOLNI, percentage damage (five point scale) [4] | PRE Application AMARE, percentage damage (five point scale) [5] | PRE Application IPOHE, percentage damage (five point scale) [6] | POST Application ALOMY, percentage damage (five point scale) [7] | POST Application SETFA, percentage damage (five point scale) [8] | POST Application ECHCG, percentage damage (five point scale) [9] | POST Application SOLNI, percentage damage (five point scale) [10] | POST Application AMARE, percentage damage (five point scale) [11] | POST Application IPOHE, percentage damage (five point scale) [12] |
| --- | --- | --- | --- | --- | --- | --- | --- | --- | --- | --- | --- | --- |
| Cn1nnnc1NC(=O)c1nn(C)c(=O)n(CC2CCOCC2)c1=O [Compound 1.095] | 5 (5=80-100%) | 5 (5=80-100%) | 5 (5=80-100%) | 5 (5=80-100%) | 5 (5=80-100%) | 5 (5=80-100%) | 5 (5=80-100%) | 5 (5=80-100%) | 5 (5=80-100%) | 5 (5=80-100%) | 5 (5=80-100%) | 5 (5=80-100%) |
| Cn1nnnc1NC(=O)c1nn(C)c(=O)n(Cc2cccc(F)c2F)c1=O [Compound 1.067] | 5 (5=80-100%) | 4 (4=60-79%) | 5 (5=80-100%) | 5 (5=80-100%) | 5 (5=80-100%) | 5 (5=80-100%) | 5 (5=80-100%) | 4 (4=60-79%) | 5 (5=80-100%) | 5 (5=80-100%) | 5 (5=80-100%) | 5 (5=80-100%) |
| Cn1nnnc1NC(=O)c1nn(C)c(=O)n(Cc2ccc([N+](=O)[O-])cc2)c1=O [Compound 1.071] | 5 (5=80-100%) | 2 (2=20-39%) | 5 (5=80-100%) | 5 (5=80-100%) | 5 (5=80-100%) | 5 (5=80-100%) | 4 (4=60-79%) | 1 (1=0-19%) | 4 (4=60-79%) | 5 (5=80-100%) | 5 (5=80-100%) | 2 (2=20-39%) |
| CC(C)CCn1c(=O)c(C(=O)Nc2nnnn2C)nn(C)c1=O [Compound 1.087] | 5 (5=80-100%) | 5 (5=80-100%) | 5 (5=80-100%) | 5 (5=80-100%) | 5 (5=80-100%) | 5 (5=80-100%) | 5 (5=80-100%) | 5 (5=80-100%) | 5 (5=80-100%) | 5 (5=80-100%) | 5 (5=80-100%) | 5 (5=80-100%) |
